From patent US11400131B2, “Multi-peptide composition” (King's College London, priority 2015, dated 2022)

Experiments:
[1] = tested on: peripheral blood mononuclear cells; test: IFN-γ ELISPOT response of Type 1 diabetes patients to nested IA-2 peptides; format: cell-based, human; conditions: nested peptides compared with parental sequences; response positive when SI ≥3; FIG. 1
Protocol: Detection of interferon (IFN)-γ by CD4^+ T cells in response to peptide stimulation was carried out using an enzyme-linked immunospot (ELISPOT) assay that has significant discriminative ability for type 1 diabetes in blinded proficiency testing, as previously described (Arif, S. et al. J Clin Invest 2004; 113: 451-463 and Herold, K. C. et al. Diabetes 2009; 58: 2588-2595). Data are expressed as the mean number of spots per triplicate and compared with the mean spot number in the presence of diluent alone (stimulation index; SI). A response is considered positive when the SI is ≥3 using cut-offs determined using receiver-operator characteristic plots as previously described (Arif, S. et al. J Clin Invest 2004; 113: 451-463).
The results are shown for 3 parental sequences (cross-hatched), and these are compared with shorter nested sequence peptides. Responses represent IFN-γ production by peripheral blood mononuclear cells cultured with each peptide, as detected using an enzyme-linked immunospot assay.

proinsulin = test: Serum proinsulin specific IgG after mono-/multi-PI treatment; format: in vivo, HLA-DR4-Tg mice; conditions: 4 weekly intradermal injections of individual peptide; FIG. 4E-F
Protocol: In brief, tolerance to proinsulin was breached in mice by subcutaneous immunisation with 100 μg proinsulin protein emulsified in CFA and treatment with intraperitoneal pertussis toxin immediately and 1 day after immunisation. Mice then received 4 weekly intradermal treatments of 10 μg control-PI or proinsulin mono/multi-PI (C13-32 (SEQ ID NO: 4); C19-A3 (SEQ ID NO: 5); C22-A5 (SEQ ID NO:6)), before subcutaneous immunisation with 100 μg proinsulin protein emulsified in IFA to boost the ongoing autoimmune response (A). Lymph nodes (LNs) were harvested 7 days later and LN cell suspensions were cultured with or without proinsulin protein or peptide (C13-32; C19-A3; C22-A5) for 48 hours in vitro. Proliferation of CD4^+ T cells and IFN-γ production were analysed by CFSE dilution at 96 hours (B) and ELISA at 48 hours (C) in response to in vitro stimulation with 50 μg/mL proinsulin protein and 10 μg/mL peptides (C13-32; C19-A3; C22-A5). Serum levels of proinsulin specific IgG1 were measured at day 42 (D). Percentages of proliferating CD3^+CD4^+CD25^highFoxP3^+ Tregs were measured by flow cytometry in LN cultures at day 42 (E). Data are representative of three independent experiments. *p<0.05, **p<0.01, ***p<0.001; Statistical significance was determined by one-way ANOVA or Student's t test. 15 mice per group in B and C; 5 mice per group D-F.
Tolerance to proinsulin was breached in mice by subcutaneous immunisation with 100 μg proinsulin protein emulsified in CFA and treatment with intraperitoneal pertussis toxin immediately and 1 day after immunisation. […] Proliferation and cytokine production were analysed by thymidine incorporation and ELISA and the mean±SEM proliferation in response to 50 μg/mL proinsulin (B) and IFN-γ production in response to 50 μg/mL proinsulin (C) or 10 μg/mL proinsulin peptides, in DLN cultures is shown. Percentage of proliferating CD3^+CD4^+CD25^highFoxP3^+ Tregs was measured by flow cytometry in LN cultures at day 42 (E). Serum levels of proinsulin specific IgG1 were measured at day 42 (F). […]

Row | Substance | proportion of Type 1 diabetes patients responding (IFN-γ production) [1] | therapeutic potency of mono-PI in contrast to multi-PI (proinsulin)
1 | 718-36: fragment of IA-2, comprising residues 718-736 (AYQAEPNTCATAQGEGNIK; listed as Homo sapiens) [Group 718-36] | preferential sequences | –
2 | 855-67: fragment of IA-2, comprising residues 855-867 (YLKNVQTQETRTL; listed as Homo sapiens) [Group 855-67] | preferential sequences | –
3 | C13-32: fragment of PI, comprising residues C13-C32 (GGGPGAGSLQPLALEGSLQK; listed as Homo sapiens) [Group C13-32] | – | lower levels of therapeutic potency
4 | C19-A3: fragment of PI, comprising residues C19-A3 (GSLQPLALEGSLQKRGIV; listed as Homo sapiens) [Group C19-A3] | – | lower levels of therapeutic potency
5 | C22-A5: fragment of PI, comprising residues C22-A5 (QPLALEGSLQKRGIVEQ; listed as Homo sapiens) [Group C22-A5] | – | lower levels of therapeutic potency
